pKd: −log10 of the molar value. Like-named read-outs stand apart in the source and are kept apart here. Residues, ends and D or L forms follow the SMILES beside them. *: point of attachment. Cbz = O=C(OCc1ccccc1)*; CH2F = FC*
Columns and labels:
[1] = system: SK-MEL-110; assay: Proliferation of SK-MEL-110 on collagen-IV with FGF-2 (cell count); type: cell-based, human; details: 500 μg/ml, 48 h, FGF-2 10 ng/ml
Method: Representative images are reported. […] Three independent experiments were performed.

[2] = target: GST-Full length survivin (Homo sapiens, UniProt O15392); assay: Solid phase assay, GST-fusion protein; type: binding; set-up: Full length survivin and both N-terminus (Met1-Gly99) or C-terminus (Lys90-Asp142) were PCR amplified and cloned; made in house; host or cells: E. coli BL21(DE3)pLysS
Chain of GST-Full length survivin (O15392 whole entry, the tested form may be a part): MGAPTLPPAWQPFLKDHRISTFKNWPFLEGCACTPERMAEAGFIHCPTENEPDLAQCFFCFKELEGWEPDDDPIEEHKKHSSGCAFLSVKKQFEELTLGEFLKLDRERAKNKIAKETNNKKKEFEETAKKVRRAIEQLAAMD
Method: (§1) Three independent experiments were performed.
(§2) Full length survivin and both N-terminus (Met1-Gly99) or C-terminus (Lys90-Asp142) were PCR amplified and cloned, using EcoRI and BamHI restriction sites, in pGex6P2 (GE Healthcare) for expression of GST fusion proteins in E. coli BL21(DE3)pLysS (PROMEGA, Southampton, United Kingdom).
(§3) Briefly, microtiter plates (Costar, Cambridge, MA) were coated with 175 nM (100 μl/well) recombinant GST-fusion proteins diluted in AC7.5 buffer for 4 h at RT. […] After washing four times and incubation for 1 h at RT with 100 μl/well Vectastain-ABC Reagent (Vector Laboratories, Burlingame, CA), wells were stained with the ELISA Amplification System (Invitrogen, Carlsbad, CA) according to manufacturer's instructions and absorption at 495 nm (A495) was determined. Specific binding was computed by subtracting nonspecific from total binding at each concentration. Curve fit was carried out according to the following one-site specific bind equation (GraphPad Prism-4 software):(1) [drawing 1]
(§4) where X is ligand concentration, Y is the specific binding, Bmax is the maximum specific binding in the same units as Y, Kd is the equilibrium binding constant, in the same units as X.

[3] = system: SK-MEL-110
[4] = target: T1, GST-C-terminus-survivin (Lys90-Asp142) (Homo sapiens, UniProt O15392); assay: Solid phase assay, GST-fusion protein; type: binding
T1 construct: C-terminus (Lys90-Asp142); made in house; host or cells: E. coli BL21(DE3)pLysS
T1 sequence (O15392 90-142): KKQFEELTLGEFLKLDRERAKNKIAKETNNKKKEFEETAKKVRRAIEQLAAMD
Method: as §1, §2, §3, §4

[5] = system: SK-MEL-110 and HUVEC
Method: Cytoplasmic lysates were spotted onto nitrocellulose, blocked with 5% milk in TPBS (0.1% Tween 20 in PBS) and incubated for 1 h at RT with a Vectastain ABC-peroxidase kit (Vector) followed by chemiluminescence reaction and exposure to Kodak film (Eastman Kodak). Interaction was quantified by densitometry (GS 710; Bio-Rad) and analyzed using the "Quantity one" software (Bio-Rad).
Three independent experiments were carried out.

[6] = system: SK-MEL-110; assay: RGDS anti-proliferative effect after pre-treatment with caspase inhibitor; type: cell-based, human; details: Z-VAD-FMK 50 μM, 2 h pre-treatment, then RGDS; p < 0.005 vs FGF-2 in the presence of Z-VAD-FMK
[7] = system: survivin; set-up: method as in PMID 17389612, PMID 18537980; details: wide range of tumor cells; cited from earlier work
[8] = system: SK-MEL-110; assay: Peptide internalization in SK-MEL-110 by FACS (PE-avidin); details: biotinylated peptide
[9] = system: active caspase-3; assay: Caspase-3 activation by confocal microscopy; type: cell-based, human; details: 500 μg/ml, 48 h, FGF-2; anti-active caspase-3 antibody

Compound: NC(N)=NCCC[C@H](N)C(=O)NCC(=O)N[C@@H](CC(=O)O)C(=O)N[C@@H](CO)C(=O)O [RGDS, Arg-Gly-Asp-Ser]
- inhibition of FGF-2-induced proliferation ([1]; collagen-IV 50 μg/ml, mean ± SD of 5 experiments in duplicate, RGDS p < 0.005): 46 ± 16%
- pKd [2]: 4.56
- internalization kinetics [3]: in a time-dependent manner
- pKd [4]: 4.52
- internalization in melanoma cells vs HUVEC [5]: markedly higher in melanoma cells vs HUVEC

Compound: COC(=O)C[C@H](NC(=O)[C@H](C)NC(=O)[C@@H](NC(=O)OCc1ccccc1)C(C)C)C(=O)CF [Z-VAD-FMK] (Cbz-Val-Ala-Asp(OMe)-CH2F)
- effect on RGDS anti-proliferative action [6]: significantly abolished the RGDS anti-proliferative effect

Compound: Cc1ccc(-c2cc(C(F)(F)F)nn2-c2ccc(S(N)(=O)=O)cc2)cc1 [colecoxib]
- survivin expression [7]: down-regulate survivin expression

Compound: Arg-Gly-Glu-Ser [RGES, RGES as control (Sigma-Aldrich)]
- internalization relative to RGDS (less than RGDS) ([8]; 24 h, RGES less than RGDS): 25%
- positive cells (internalization) ([8]; 24 h incubation, PE-avidin, FACS, three independent experiments): about 30%
- internalization kinetics ([8]; 2, 6, 16 and 24 h, FACS): internalized with slower kinetics
- caspase-3 activation [9]: no effect on caspase-3 activation
- anti-proliferative effect ([1]; collagen-IV): no anti-proliferative effect

— article PMC2867821 (Molecular Cancer, 2010)
